SMILES strings stand for the structures. Where only a bound is given, the exact number is not on record here.

Experiment [1] relates to BT-20 (expressing wild type KRas). The experiment in a line: Proliferation Assay (Cell Viability Assay). The conditions noted are these: Homo sapiens; BT-20, Breast (TNBC), KRas WT. Type of experiment: cell-based. In a few lines:
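Cells plated at 2000–5000/well overnight, then treated 2–4 days at 37 °C, 5% CO2 with compound at 10 μM single dose or serial dilutions for IC50, in 0.3% DMSO and 10% FBS. Viability read by CellTiter 96 Aqueous One (MTS); % proliferation inhibition calculated from raw data.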

In experiment [2] the test system is HPAF-II (expressing KRas G12D mutant). The experiment can be described thus: Proliferation Assay (Cell Viability Assay). Format: cell-based. The conditions noted are these: Homo sapiens, pancreatic. In a few lines: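 Cells (2000–5000/well; CF-PAC1 in IMDM, HPAF-II in EMEM, NCI-H441 and NCI-H1299 in RPMI 1640) were plated overnight, then exposed to compounds at 10 μM or in serial dilutions for IC50 with 0.3% DMSO and 10% FBS for 2–4 days at 37 °C. Viability was read with CellTiter 96 Aqueous One, and percent inhibition was calculated.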

For experiment [3], the system named is A549 (expressing KRas G12S mutant). The experiment in a line: Proliferation Assay (Cell Viability Assay). Conditions: Homo sapiens, A549, NSCLC. Type of experiment: cell-based. Here is the method:
(§1) Cell lines: Human tumor-derived cell lines were purchased from American Type Culture Collection. Human tumor-derived pancreatic cancer cell line MiaPaca-2 (expressing KRAS G12C mutant) and Panc-1 (expressing KRas G12D mutant), and Human non-small cell lung cancer (NSCLC) cell line A549 (expressing KRas G12S mutant) were grown in complete DMEM-High Glucose medium. Human colon cancer cell line SW-620 (expressing KRas G12V mutant) was grown in RPMI 1640 medium. All cell lines were supplemented with penicillin (100 U/mL), streptomycin (100 μg/mL), and 10% heat-inactivated FBS at 37° C. in a humidified incubator with 5% CO2.
(§2) Method: Cells were plated at 2000 to 5000 cells/well density in 96-wells plate and cultured overnight. Small molecules to be tested were added to the cells in the final concentration of 10 μM in the presence of 0.3% DMSO and 10% FBS and incubated for 2-4 days at 37° C. in a humidified incubator with 5% CO2. For IC50 value determination, serial dilutions of compounds were added to cells under the same conditions.
(§3) Assay: At the end of the incubation period, cell viability was determined using the CellTiter 96® Aqueous One Solution Cell Proliferation Assay according to manufacturer specifications (Promega, Madison, WI). The percentage of small molecules inhibition of cellular proliferation was calculated from raw data.
(§4) Cell lines: these Human tumor-derived cell lines were purchased from American Type Culture Collection. Human tumor-derived pancreatic cancer cell line MiaPaca-2 (expressing KRAS G12C mutant) and Panc-1 (expressing KRas G12D mutant), and Human non-small cell lung cancer (NSCLC) cell line A549 (expressing KRas G12S mutant), and Human melanoma cell line A375 (wild type Kras) were grown in complete DMEM-High Glucose medium. Human tumor-derived pancreatic cancer cell lines SU86.86 (expressing KRas G12D mutant), BxPC3 (expressing wild type K-Ras), and Human non-small cell lung cancer (NSCLC) cell lines NCI-H441 (expressing KRas G12S mutant), NCI-H1975 (expressing wild type KRas), NCI-H358 (expressing KRas G12C mutant), NCI-H1299 (expressing NRas Q61H mutant), and Human colon cancer cell line SW-620 (expressing KRas G12V mutant), Human triple negative breast cancer cell line HCC-1806 (expressing wild type KRas), and Human tumor-derived multiple myeloma cell line MM.1R (expressing wild type KRAS), were grown in RPMI 1640 medium. Human tumor-derived breast cancer cell line BT-549 (expressing wild type KRAS) was grown in RPMI 1640 medium in the presence of 11.8U insulin. Human tumor-derived pancreatic cancer cell line HPAF-II (expressing KRas G12D mutant), Human triple negative breast cancer cell line BT-20 (expressing wild type KRas), and Human colon cancer cell line LS123 (expressing KRas G12S mutant), were grown in EMEM medium. Human tumor-derived pancreatic cancer cell line CF-PAC1 (expressing KRas G12V mutant) was frown in IMDM medium, and Human colon cancer cell line HT29 (expressing wild type KRas) was grown in McCoy's 5A medium. The colon cancer cell line GP2d (expressing KRas G12D mutant) was purchased from MilliporeSigma and grown in DMEM-High Glucose medium. All cell lines were supplemented with penicillin (100 U/mL), streptomycin (100 μg/mL), and 10% heat-inactivated FBS at 37° C. in a humidified incubator with 5% CO2.
(§5) Method: Cells were plated at 2000 to 5000 cells/well density in 96-wells plate and cultured overnight. Small molecules that were tested were added to the cells in the final concentration of 10 μM in the presence of 0.3% DMSO and 10% FBS, and incubated for 2-4 days at 37° C. in a humidified incubator with 5% CO2. For IC50 value determination, serial dilutions of compounds were added to cells under the same conditions.

The test system of experiment [4] is Panc-1 (expressing KRas G12D mutant). The experiment can be described thus: Proliferation Assay (Cell Viability Assay). Conditions: Homo sapiens, Panc1, pancreatic. Format: cell-based. Here is the method:
as §1, §2, §3, §4, §5

The test system of a further experiment is PUMA expression. The experiment can be described thus: Cell-based Puma expression assay (western blot). On the set-up: species or system human. On the procedure:
Biological Example 4: Puma Expression and Caspases Activation Assay
Protocols for Cell-Based Puma Expression and Caspase Activation Assays
Cell lines: All human tumor-derived cancer cell lines were purchased from American Type Culture Collection. Human tumor-derived cancer cell lines Panc-1 (expressing KRas G12D mutant), MiaPaca-2 (expressing KRas G12C mutant), A549 (expressing KRas G12S mutant), and A375 (expressing wild type KRas) were grown in complete DMEM-High Glucose medium and NCI-H1975 (expressing wild type KRas), MM.1R (expressing wild type KRas) and IM.9 (expressing wild type KRas) were grown in RPMI1640 medium. Human tumor-derived cancer cell line BT-549 (expressing wild type KRas) was grown in RPMI1640 medium with 11.8U insulin. All mediums were supplemented with penicillin (100 U/mL), streptomycin (100 μg/mL), and 10% heat-inactivated FBS at 37° C. in a humidified incubator with 5% CO2.
Method: Cells were plated at 300,000 to 800,000 cells/well density in a 6-well plate in the presence of 10% FBS. The next day small molecules to be tested were added to the cells in the final concentration of 3 μM in the presence of 0.3% DMSO for 48 hours incubation at 37° C. For IC50 value determination, serial dilutions of compounds were added to cells under the same conditions. Following 48 hours of incubation cells were lysed with lysis buffer containing 1% Triton X-100, EDTA, and Halt™ Protease & Phosphatase Inhibitor Cocktail (Thermo Scientific). Protein concentration was assessed by BCA protein assay (Thermo Scientific). Increase expression of PUMA and active/cleaved forms of caspase 3, caspase 6 and caspase 9 were detected by western blot.
Western blot protocol: Equal amounts of protein (15-50 μg) were separated by SDS-PAGE and transferred to nitrocellulose membranes (Invitrogen by Thermo Fisher Scientific). The membrane was stained with Ponceau S Stain (Boston BioProducts) to verify uniform protein loading. Membranes were blocked with 10% milk and expression levels of PUMA was assessed by incubating overnight at 4° C. with the antibody PUMA (D30C10) from Cell Signaling Technology (#12450) and active/cleaved forms of caspase 3, caspase 6 and caspase 9 by incubating overnight at 4° C. with the following antibodies: cleaved caspase-3 (Asp175) (5A1E), cleaved caspase-6 (Asp162) and cleaved caspase-9 (Asp330) (D2D4) (all antibodies from Cell Signaling Technology). Then the membranes were incubated with HRP-conjugated secondary antibody (Jackson Immunoresearch, West Grove, PA). Bands were incubated in Amersham ECL Prime Western Blotting Detection Reagent (GE Healthcare) and visualized using the ChemiDoc MP imaging system (Bio-Rad).
Background: In western blotting, separated proteins are transferred to a membrane and probed.

In general, IC50 refers to the point on the concentration scale where inhibition reaches its midpoint. A higher IC50 goes with lower potency. Take `COc1ccnc(Nc2nc(-c3nccn3C)nn3cc(-c4ccn(C(C)C)n4)c(C)c23)c1` [Compound 58, 6-(1-Isopropyl-1H-pyrazol-3-yl)-N-(4-methoxypyridin-2-yl)-5-methyl-2-(1-methyl-1H-imidazol-2-yl)pyrrolo[2,1-f][1,2,4]triazin-4-amine]: the IC50 in experiment [1], in experiment [2], in experiment [3] and in experiment [4] was below 150 nM throughout. Besides, the “Increased PUMA expression” value was “yes” in the experiment on PUMA expression (A549, after 48 hours); “yes” in the experiment with PUMA expression (BT-549, after 48 hours); “yes” in the experiment on PUMA expression (MiaPaca2, after 48 hours).

The record behind these values is patent publication US12459951B2, “Compounds that interact with RAS superfamily proteins for treatment of cancers, inflammatory diseases, rasopathies, and fibrotic disease” (SHY Therapeutics, LLC, priority 2022, dated 2025).
